We go through one compound from ChEMBL document CHEMBL1152778, “Design, synthesis, and biological evaluation of (2R,alphaS)-3,4-dihydro-2-[3-(1,1,2,2-tetrafluoroethoxy)phenyl]-5-[3-(trifluoromethoxy)-phenyl]-alpha-(trifluoromethyl)-1(2H)-quinolineethanol as potent and orally active cholesteryl ester transfer protein inhibitor” (J Med Chem, 2009).

Active and inactive are the calls of the source. No cut-off for these calls is given here. Where only a bound is given, the exact number is not on record here.

Data set [1] has as its target T1, Cholesteryl ester transfer protein (Homo sapiens, UniProt P11597).
T1 sequence (P11597 whole entry): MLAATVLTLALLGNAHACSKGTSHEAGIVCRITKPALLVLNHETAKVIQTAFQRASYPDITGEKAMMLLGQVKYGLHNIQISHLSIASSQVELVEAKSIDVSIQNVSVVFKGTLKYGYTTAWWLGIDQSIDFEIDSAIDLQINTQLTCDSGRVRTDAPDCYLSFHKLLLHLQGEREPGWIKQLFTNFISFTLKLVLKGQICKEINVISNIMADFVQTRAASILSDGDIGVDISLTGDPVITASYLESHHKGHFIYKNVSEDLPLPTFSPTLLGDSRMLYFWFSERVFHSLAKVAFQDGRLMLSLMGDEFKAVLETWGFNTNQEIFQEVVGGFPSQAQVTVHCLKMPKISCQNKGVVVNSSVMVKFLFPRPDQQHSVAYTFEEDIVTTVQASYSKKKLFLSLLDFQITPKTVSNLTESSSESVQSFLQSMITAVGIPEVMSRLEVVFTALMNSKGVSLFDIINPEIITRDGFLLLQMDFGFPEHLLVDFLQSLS
Briefly: Inhibition of human plasma-derived CETP activity by scintillation proximity assay. Format: cell-free. (Scintillation proximity formats need no separation of bound from free tracer.)

In data set [2] the test system is Cynomolgus monkey. Nature of the data set: Ex vivo inhibition of CETP in normal chow diet-fed cynomolgus monkey at 10 mg/kg, po for 5 days by Roar assay. It counts as functional. To be noted: Macaca fascicularis, 120 h.
Data set [3] is described as follows: Plasma concentration in normal chow diet-fed cynomolgus monkey at 10 mg/kg, po for 5 days. Details: dose 10 mg/kg, route oral. Format: ADME, organism-based, Macaca fascicularis.
In data set [4] the test system is Mus musculus. Briefly: Increase in HDLC level in po dosed normal chow diet-fed human CETP transgenic mouse model. It counts as functional, organism-based.
Data set [5] has as its target T1, Cholesteryl ester transfer protein. Nature of the data set: Inhibition of CETP-mediated transfer of [3H]cholesteryl ester from HDL in human plasma after 18 hrs. Format: cell-free.
For data set [6], the system named is Hamster. Briefly: Increase in HDLC level in po dosed high-fat fed hamster model. Format: functional, organism-based. Conditions: Cricetinae.
In data set [7] the test system is Mus musculus. Nature of the data set: Increase in HDLC level in normal chow diet-fed human CETP transgenic mouse model at 3 mg/kg, po for 5 days measured after 2 hrs of last dose. It counts as functional, organism-based. Details: dose 3 mg/kg.
Data set [8] is described as follows: Half life in rat at 2 to 3 mg/kg, iv and 10 mg/kg, po. It counts as ADME, organism-based. Conditions: in vivo.
Data set [9] can be described thus: Inhibition of CETP-mediated transfer of cholesteryl ester to LDL/VLDL in rabbit plasma by Roar assay. It counts as cell-free. To be noted: Oryctolagus cuniculus.
Data set [10] in a line: Plasma concentration in normal chow diet-fed cynomolgus monkey at 30 mg/kg, po for 5 days. It counts as ADME, organism-based, Macaca fascicularis. Also noted: dose 30 mg/kg, route oral.
Data set [11] addresses T2, Microsomal triglyceride transfer protein large subunit (Homo sapiens) (UniProt P55157).
T2 sequence (whole entry): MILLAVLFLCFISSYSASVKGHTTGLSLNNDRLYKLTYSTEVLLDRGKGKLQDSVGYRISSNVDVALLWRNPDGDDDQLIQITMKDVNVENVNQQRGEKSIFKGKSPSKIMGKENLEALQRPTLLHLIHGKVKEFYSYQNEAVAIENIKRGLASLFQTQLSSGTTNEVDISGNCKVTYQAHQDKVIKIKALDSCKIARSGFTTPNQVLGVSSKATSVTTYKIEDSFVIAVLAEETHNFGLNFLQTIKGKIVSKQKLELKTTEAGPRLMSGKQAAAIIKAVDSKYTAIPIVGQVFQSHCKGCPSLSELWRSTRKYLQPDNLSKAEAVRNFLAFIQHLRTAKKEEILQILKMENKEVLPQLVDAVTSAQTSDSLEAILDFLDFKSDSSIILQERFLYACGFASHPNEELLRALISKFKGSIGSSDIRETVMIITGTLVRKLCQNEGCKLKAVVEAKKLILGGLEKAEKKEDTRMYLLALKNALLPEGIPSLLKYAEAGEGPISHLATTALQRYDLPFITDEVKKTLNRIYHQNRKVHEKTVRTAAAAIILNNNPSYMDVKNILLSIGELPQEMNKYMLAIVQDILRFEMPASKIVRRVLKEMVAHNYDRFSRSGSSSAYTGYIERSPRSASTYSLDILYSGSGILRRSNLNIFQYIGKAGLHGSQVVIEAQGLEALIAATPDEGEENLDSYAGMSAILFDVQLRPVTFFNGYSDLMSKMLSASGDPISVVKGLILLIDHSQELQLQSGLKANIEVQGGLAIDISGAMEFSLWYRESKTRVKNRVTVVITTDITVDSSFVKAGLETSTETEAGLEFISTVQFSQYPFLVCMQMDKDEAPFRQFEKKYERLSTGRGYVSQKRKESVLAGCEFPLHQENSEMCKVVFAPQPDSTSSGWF
Briefly: Inhibition of microsomal triglyceride transfer protein by cell based assay.

For data set [12], the system named is Cynomolgus monkey. Briefly: Increase in HDLC level in po dosed normal chow diet-fed cynomolgus monkey. Format: functional, organism-based. To be noted: Macaca fascicularis.
Data set [13] relates to Cynomolgus monkey. Briefly: Increase in HDLC level in normal chow diet-fed cynomolgus monkey at 10 mg/kg, po for 5 days measured after 10 hrs of last dose. It counts as functional, Macaca fascicularis.
Data set [14] has as its target T3, Lipoprotein lipase (Homo sapiens) (UniProt P06858).
T3 sequence (whole entry): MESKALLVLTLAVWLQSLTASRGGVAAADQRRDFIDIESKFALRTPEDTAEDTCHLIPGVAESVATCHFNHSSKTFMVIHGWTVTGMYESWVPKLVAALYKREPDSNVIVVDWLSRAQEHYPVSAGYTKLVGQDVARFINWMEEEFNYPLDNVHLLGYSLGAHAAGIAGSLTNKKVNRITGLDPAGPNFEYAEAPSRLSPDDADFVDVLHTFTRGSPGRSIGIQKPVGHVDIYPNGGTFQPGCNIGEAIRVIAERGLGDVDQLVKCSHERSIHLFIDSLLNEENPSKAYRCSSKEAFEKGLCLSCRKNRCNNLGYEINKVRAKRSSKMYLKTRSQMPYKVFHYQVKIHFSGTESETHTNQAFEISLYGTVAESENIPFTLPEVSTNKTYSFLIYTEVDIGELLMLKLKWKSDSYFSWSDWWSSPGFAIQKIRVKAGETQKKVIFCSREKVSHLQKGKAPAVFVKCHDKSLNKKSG
Briefly: Inhibition of lipoprotein lipase activity assessed as release of free fatty acid from hydrolysis of VLDL by cell based assay.

The target of data set [15] is Phospholipid transfer protein (Homo sapiens) (UniProt P55058). Briefly: Inhibition of PLTP activity assessed as phosphatidylcholine transferred from [3H]phosphatidylcholine (dipalmitoyl)-labeled liposomes to HDL by cell based liquid scintillation counter.
Phospholipid transfer protein (Homo sapiens), sequence (P55058 whole entry): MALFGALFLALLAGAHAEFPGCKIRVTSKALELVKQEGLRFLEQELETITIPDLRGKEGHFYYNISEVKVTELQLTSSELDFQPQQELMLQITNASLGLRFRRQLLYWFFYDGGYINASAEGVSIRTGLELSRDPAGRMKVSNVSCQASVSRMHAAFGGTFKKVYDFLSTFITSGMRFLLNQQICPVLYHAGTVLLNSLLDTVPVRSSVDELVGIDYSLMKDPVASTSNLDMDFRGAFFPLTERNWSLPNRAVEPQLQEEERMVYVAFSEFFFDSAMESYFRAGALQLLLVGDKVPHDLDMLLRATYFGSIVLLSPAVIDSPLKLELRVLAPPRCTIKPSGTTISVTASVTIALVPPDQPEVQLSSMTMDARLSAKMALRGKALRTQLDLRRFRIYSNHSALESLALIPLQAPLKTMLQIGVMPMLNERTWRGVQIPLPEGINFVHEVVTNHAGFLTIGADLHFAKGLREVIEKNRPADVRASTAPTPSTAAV
A short description of data set [16]: AUC in rat at 2 to 3 mg/kg, iv and 10 mg/kg, po. It counts as ADME, organism-based. Conditions: plasma.
Data set [17] can be described thus: Metabolic stability in human liver microsomes assessed as half life. Format: ADME, Microsome. On the technique in general: Liver microsomes are a subcellular fraction often used to study metabolism.
For data set [18], the system named is Cynomolgus monkey. Briefly: Ex vivo inhibition of CETP in normal chow diet-fed cynomolgus monkey at 30 mg/kg, po for 5 days by Roar assay. To be noted: Macaca fascicularis, 120 h. Format: functional.
Data set [19] can be described thus: Tmax in rat at 2 to 3 mg/kg, iv and 10 mg/kg, po. Format: ADME, organism-based. Conditions: in vivo.
Data set [20] deals with Hamster. Nature of the data set: Increase in HDLC to LDLC ratio in high-fat fed hamster model at 3 to 30 mg/kg, po for 5 days measured after 2 hrs of last dose. To be noted: dose mg/kg 3-30. It counts as functional, Cricetinae.

`O[C@@H](CN1c2cccc(-c3cccc(OC(F)(F)F)c3)c2CC[C@@H]1c1cccc(OC(F)(F)C(F)F)c1)C(F)(F)F`: the IC50 (usually the concentration that gives 50% inhibition) was determined as 39 nM in [1], 200 nM in [5] and 3500 nM in data set [9]. Also, in the data set with Cynomolgus monkey [2], the inhibition in vivo (usually the change of the read-out against control, counted positive when it falls) at 10 mg/kg turned out to be 51%. Moreover, the results for the concentration at 120 h in data set [3] and in data set [10] were 2.7 µM and 5.9 µM, respectively. Besides, the Activity entry in the data set on Mus musculus [4] was “Dose-dependent effect”; in the data set with Hamster [6], “Dose-dependent effect”; in the data set with Cynomolgus monkey [12], “Dose-dependent effect”; in the data set with Cynomolgus monkey [13] it was 16%; with Hamster [20], 4.6. Further, in the data set on Mus musculus [7], the result was Active. In addition, the half-life (commonly how long it takes for the measured level to halve) was 28 h in [8] and over 2.13 h in data set [17]. In addition, the result in [11], in data set [14] and in [15] was inactive. The AUC (commonly concentration integrated over time) in data set [16] amounted to 31300 ng·h/mL. The inhibition in vivo at 30 mg/kg in the data set with Cynomolgus monkey [18] was found to be 67%. Further, the Tmax (usually the time from dosing to the highest level) in [19] came out at 6 h.
